In ChEMBL document CHEMBL1154515, “Gamma-pyrone natural products--a privileged compound class provided by nature” (Bioorg Med Chem, 2009):
≈ marks a conversion by molar mass, not a printed value. One block for each compound: values may come before it. Calls of active or inactive are those of the source. The calls are words filed in the database; no cut-off is given here.

Experiments:
[1] = tested on: Leptinotarsa decemlineata; experiment: Insecticidal activity against Leptinotarsa decemlineata; assay type: functional
[2] = molecular target: T1, Potassium voltage-gated channel subfamily A member 3 (Homo sapiens, UniProt P22001); experiment: Inhibition of voltage-gated Kv1.3 potassium channel expressed in CHO cells by 86Rb efflux experiment; assay type: cell-based
T1 sequence (P22001 whole entry): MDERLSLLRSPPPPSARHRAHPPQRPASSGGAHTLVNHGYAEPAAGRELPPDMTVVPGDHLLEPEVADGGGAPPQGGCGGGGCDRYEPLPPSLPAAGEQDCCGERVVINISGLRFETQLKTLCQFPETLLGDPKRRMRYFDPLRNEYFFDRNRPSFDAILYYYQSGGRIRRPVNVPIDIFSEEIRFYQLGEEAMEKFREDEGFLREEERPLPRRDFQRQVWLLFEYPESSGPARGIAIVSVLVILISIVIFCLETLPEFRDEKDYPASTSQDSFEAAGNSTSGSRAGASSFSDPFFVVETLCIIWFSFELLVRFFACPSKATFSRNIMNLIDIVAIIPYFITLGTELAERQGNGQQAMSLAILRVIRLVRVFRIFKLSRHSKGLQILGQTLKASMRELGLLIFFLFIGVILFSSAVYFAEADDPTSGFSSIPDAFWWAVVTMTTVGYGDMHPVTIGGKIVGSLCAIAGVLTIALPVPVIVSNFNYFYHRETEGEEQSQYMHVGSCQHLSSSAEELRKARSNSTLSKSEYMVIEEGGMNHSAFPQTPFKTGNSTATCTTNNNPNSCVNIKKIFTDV

Helicobacter pylori = experiment: Antimicrobial activity against Helicobacter pylori; assay type: functional
B-cell = experiment: Inhibition of LPS-induced B cell proliferation; assay type: functional, cell-based
[3] = Toxicity in ip dosed rat; assay type: organism-based; settings: in vivo
T-cell = experiment: Inhibition of Concanavalin A-induced T cell proliferation; assay type: functional, cell-based
[4] = tested on: Leptinotarsa decemlineata; experiment: Insecticidal activity against Leptinotarsa decemlineata at 1000 ppm; assay type: functional, organism-based
[5] = Depolarization of human T cells by electrophysiological method; assay type: functional, cell-based; settings: T-cell
[6] = molecular target: T1, Potassium voltage-gated channel subfamily A member 3; experiment: Antagonist activity at voltage-gated Kv1.3 potassium channel; assay type: functional
[7] = Inhibition of NADH fumarate reductase
HT-1080 = experiment: Cytotoxicity against human HT1080 cells; assay type: functional, cell-based

Structure (SMILES): C=C1CC[C@H]2[C@](C)(CCC=C(C)C)[C@@H](OC(=O)[C@H](OC)[C@@H](C)CC)CC[C@]2(C)[C@@H]1Cc1c(OC)oc(C)c(C)c1=O [VIRIDOXIN A]
- LC50 [1]: 39700 ng/mL (≈ 69600 nM)

- IC50 [2]: 1200 nM
Structure (SMILES): C=C1CC[C@@H]2[C@](C)(CC[C@H]3OC(C(C)(C)O)=C(O)C[C@]23C)[C@@H]1Cc1c(OC)oc(C)c(C)c1=O [CANDELALIDE B]

- MIC (Helicobacter pylori): 0.1 ng/mL (≈ 0.25 nM)
Structure (SMILES): C/C=C(\C)[C@H](O)[C@H](C)/C=C(C)/C=C/C/C(C)=C/Cc1oc(OC)c(C)c(=O)c1C [ACTINOPYRONE A]

Structure (SMILES): C/C=C(\C)[C@H](O)[C@H](C)/C=C(C)/C=C/C/C(C)=C/Cc1oc(OC)c(CC)c(=O)c1C [ACTINOPYRONE C]
- MIC (Helicobacter pylori): 0.1 ng/mL (≈ 0.241 nM)

Structure (SMILES): COc1oc([C@H]2C[C@@]3(CO2)[C@H](c2ccc([N+](=O)[O-])cc2)[C@]2(C)C=C(C)C=C(C)[C@@H]23)c(C)c(=O)c1C
- IC50 (B-cell): 800 nM

Structure (SMILES): C=C1CC[C@@H]2[C@@](C)(CCC(C)(C)O)[C@@H](O)CC[C@@]2(C)[C@H]1Cc1c(OC)oc(C)c(C(=O)OC)c1=O [COLLECTOTRICHIN A]
- LD50 [3]: 16 mg/kg

Structure (SMILES): C=C1CC[C@H]2[C@](C)(CCC=C(C)C)[C@@H](OC(=O)[C@H](O)[C@@H](C)CC)CC[C@]2(C)[C@@H]1Cc1c(OC)oc(C)c(C)c1=O [VIRIDOXIN B]
- LC50 [1]: 50700 ng/mL (≈ 91100 nM)

Structure (SMILES): COc1oc([C@@H]2C[C@@]3(CO2)[C@H](c2ccc([N+](=O)[O-])cc2)[C@]2(C)C=C(C)C=C(C)[C@@H]23)c(C)c(=O)c1C
- IC50 (T-cell): 200 nM

- MIC (Helicobacter pylori): 0.1 ng/mL (≈ 0.259 nM)
Structure (SMILES): C/C=C(\C)[C@H](O)[C@H](C)/C=C(C)/C=C/C/C(C)=C/Cc1oc(OC)cc(=O)c1C [ACTINOPYRONE B]

Structure (SMILES): C=C1CC[C@@H]2[C@](C)(CC[C@H](O)[C@@]2(C)CCC=C(C)C)[C@@H]1Cc1c(OC)oc(C)c(C)c1=O
- Activity [4]: inactive

- EC50 [5]: 500 nM
- IC50 [6]: 3900 nM
Structure (SMILES): C=C1CC[C@H]2[C@](C)(CCC=C(C)C)[C@@H](OC(C)=O)CC[C@]2(C)[C@@H]1Cc1c(OC)oc(C)c(C)c1=O [NALANTHALIDE]

- IC50 [2]: 3700 nM
Structure (SMILES): C=C1CC[C@@H]2[C@](C)(CC[C@H]3OC=CC[C@]23C)[C@@H]1Cc1c(OC)oc(C)c(C)c1=O [CANDELALIDE A]

Structure (SMILES): COc1oc([C@H]2C/C(=C/C(C)=C/C(C)=C/C(C)=C/c3ccc([N+](=O)[O-])cc3)CO2)c(C)c(=O)c1C [SPECTINABILIN]
- IC50 [7]: 15 nM

- IC50 [2]: 2500 nM
Structure (SMILES): C=C1CC[C@@H]2[C@](C)(CC[C@H]3OC(C(C)(C)O)=CC[C@]23C)[C@H]1Cc1c(OC)oc(C)c(C)c1=O [CANDELALIDE C]

Structure (SMILES): COc1oc([C@H]2C/C(=C/C(C)=C\c3ccc([N+](=O)[O-])cc3)CO2)c(C)c(=O)c1C [ALLOAUREOTHIN]
- IC50 (HT-1080): 30000 nM
